Consider five compounds from patent US12110494B2, “Method for biologically producing sugar alcohol from agar” (Korea University Research and Business Foundation, priority 2018, dated 2024).

In data set [1] the target is T1, AR expressed by a GRE3 gene derived from S. cerevisiae (Saccharomyces cerevisiae, UniProt P38715).
T1 construct: A target gene GRE3 was amplified from the genomic DNA by PCR; His6 (C); made in house
T1 sequence (P38715 1-327): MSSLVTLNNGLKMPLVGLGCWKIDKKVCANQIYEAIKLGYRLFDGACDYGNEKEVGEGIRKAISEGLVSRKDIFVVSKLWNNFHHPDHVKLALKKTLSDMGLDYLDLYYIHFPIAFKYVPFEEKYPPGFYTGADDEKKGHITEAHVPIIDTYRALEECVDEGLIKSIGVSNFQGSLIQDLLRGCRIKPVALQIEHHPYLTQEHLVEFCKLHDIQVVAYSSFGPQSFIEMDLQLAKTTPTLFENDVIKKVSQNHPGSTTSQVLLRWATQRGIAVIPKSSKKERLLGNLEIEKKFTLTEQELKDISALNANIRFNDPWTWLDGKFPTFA
The data set can be described thus: Reduction of L-AHG and AB by AR (NADPH decrease at 340 nm). In kind it is biochemical. The settings on record: substrate 2 mM, 1 mM NADPH, pH 6.0 sodium phosphate buffer, 30° C., FIG. 3B. As to the method: An enzymatic reaction was performed in a pH 6.0 sodium phosphate buffer at 30° C. 1 mM NADPH was used as a cofactor, and each substrate was allowed to react at 2 mM and a protein concentration of 9.36 nmol.

The target in data set [2] is T2, β-galactosidase expressed by LAC4 (Kluyveromyces lactis, UniProt P00723).
T2 construct: expressed in transfected cells; host or cells: Saccharomyces cerevisiae D452-2-L124 (crude lysate supernatant)
The data set is described as follows: AB hydrolysis by LAC4 in coenzyme obtained from lysed cells. It counts as biochemical, K. lactis. The settings on record: substrate 2 g/L. As to the method: The AB hydrolysis ability of LAC4 was examined for the constructed strain D452-2-L124 and controls D452-2-L12 and parent D452-2. Since a method of verifying AB hydrolysis is to verify the enzymatic reaction in the cell, a protein, that is, a coenzyme, obtained by growth, collection, and lysis of each cell was used to measure the AB hydrolysis ability. More specifically, each strain was allowed to grow in a YP medium, which is a nutrient broth containing 20 g/L of glucose, at 30° C. and centrifuged in the mid-exponential growth phase at 3,000 g for 10 minutes to collect cells. The collected cells were released with a 20 mM Tris-HCl (pH 7.4) buffer and then lyzed using a sonicator. The lyzed cells were centrifuged at 4° C. and 10,000 g for 10 minutes. The resultant was analyzed by BCA protein concentration quantification to measure the concentration of a coenzyme.
Enzymatic reaction conditions for AB hydrolysis by LAC4 were as follows. AB and lactose as a positive control were used as substrates in the experiment. Each substrate with a concentration of 2 g/L and a coenzyme at 0.5 g/L were reacted in a sodium acetate (pH 6.0) buffer at 30° C. […] This is due to a structural difference between AB and lactose. In this way, it is expected that AB brought into the cell by LAC12 will be hydrolyzed by LAC4.

The subject of data set [3] is D452-2-L12. The data set is described as follows: Intracellular AB uptake by LAC12 in minimal medium. It counts as cell-based, S. cerevisiae. The settings on record: minimal medium (Verduyn), without carbon source, FIG. 4A. On the procedure: To confirm the possibility that, […], AB is consumed together or AB is uptaken into the cell by producing energy from the carbon source, […], and then AB consumption experiments were performed for D452-2-L12 and parent D452-2 as a control. […]

In data set [4] the test system is parent D452-2. The data set can be described thus: Intracellular AB uptake in minimal medium, control strain. In kind it is cell-based, S. cerevisiae. The settings on record: minimal medium (Verduyn), without carbon source, FIG. 4D. As to the method: To confirm the possibility that, when a carbon source that may be consumed by a transporter is provided, AB is consumed together or AB is uptaken into the cell by producing energy from the carbon source, […], and then AB consumption experiments were performed for D452-2-L12 and parent D452-2 as a control. As a result, both when glucose (FIG. 4B) was provided and when galactose (FIG. 4C) was provided, only D452-2-L12 was able to consume AB and produced ABol. […] Therefore, D452-2-L12 was able to consume AB by LAC12.

The test system of data set [5] is D452-2-L124. The data set can be described thus: Cell growth inhibition according to AB concentration. It counts as cell-based, S. cerevisiae. An excerpt: (§1) An experiment for confirming the growth inhibition effect is as follows. […] This is because an increase in AB concentration causes a glucose (carbon source) consumption rate to be decreased (FIG. 6B).
The test system of data set [6] is D452-2-L12. The data set is described as above. It counts as cell-based, S. cerevisiae. The settings on record: 20 g/L glucose.
Description: as §1

For data set [7], the system named is parent D452-2. The description is as above. It counts as cell-based, S. cerevisiae. The settings on record: 20 g/L glucose.
Description: as §1

A short description of data set [8]: Thermal stability (degree of denaturation over time). The settings on record: at 4, 25, 50, and 70° C., FIGS. 11A-11D. In kind it is physicochemical. As to the method: To confirm whether L-AHGol and L-ABol, which were produced by fermentation and separated by size exclusion chromatography, are actually stable against heat, L-AHG and AB were experimentally compared. The experiment was performed by measuring the degree of denaturation of each substance over time at 4, 25, 50, and 70° C.

The test system of data set [9] is Streptococcus mutans. The settings on record: reported; cited from earlier work.
[10] abbreviates: AB 0, 10, 20, 50 g/L, minimal medium, 30° C., FIG. 6A.

T2 sequence (P00723 whole entry): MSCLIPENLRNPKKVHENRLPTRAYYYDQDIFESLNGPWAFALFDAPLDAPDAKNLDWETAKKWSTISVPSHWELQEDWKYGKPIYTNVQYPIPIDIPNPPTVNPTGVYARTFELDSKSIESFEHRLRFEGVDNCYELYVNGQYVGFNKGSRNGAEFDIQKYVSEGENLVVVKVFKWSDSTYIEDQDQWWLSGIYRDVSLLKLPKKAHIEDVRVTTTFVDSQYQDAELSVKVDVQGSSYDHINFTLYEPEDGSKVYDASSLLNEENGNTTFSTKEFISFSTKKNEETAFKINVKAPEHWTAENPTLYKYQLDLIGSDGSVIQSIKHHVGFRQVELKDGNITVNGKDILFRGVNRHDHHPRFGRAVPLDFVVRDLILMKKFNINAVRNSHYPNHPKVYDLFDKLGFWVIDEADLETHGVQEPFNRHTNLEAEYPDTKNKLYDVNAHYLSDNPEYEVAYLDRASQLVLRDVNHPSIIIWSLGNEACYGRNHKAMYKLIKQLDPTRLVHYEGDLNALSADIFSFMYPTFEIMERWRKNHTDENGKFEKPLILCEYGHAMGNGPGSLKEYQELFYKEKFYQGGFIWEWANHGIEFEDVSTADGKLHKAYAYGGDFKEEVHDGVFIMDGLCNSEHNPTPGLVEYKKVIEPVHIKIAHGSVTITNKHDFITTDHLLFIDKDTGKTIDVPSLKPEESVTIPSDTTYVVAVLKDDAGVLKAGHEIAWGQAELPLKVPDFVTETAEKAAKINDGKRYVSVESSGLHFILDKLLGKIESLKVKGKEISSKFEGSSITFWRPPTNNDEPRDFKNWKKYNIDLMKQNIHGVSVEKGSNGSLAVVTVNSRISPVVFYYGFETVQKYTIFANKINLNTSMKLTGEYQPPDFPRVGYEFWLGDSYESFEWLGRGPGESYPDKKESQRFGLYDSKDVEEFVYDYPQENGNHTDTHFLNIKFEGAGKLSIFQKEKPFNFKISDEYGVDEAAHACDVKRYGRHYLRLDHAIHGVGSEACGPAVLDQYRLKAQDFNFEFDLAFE

Regarding `OC[C@H]1O[C@@H](O[C@H]2[C@H]3OC[C@@H]2OC(O)[C@H]3O)[C@H](O)[C@@H](O)[C@H]1O` (mixture of isomers) [AB, agarobiose], the “reactivity with AR” value in [1] is “converted into ABol by AR”. The AB hydrolysis result in data set [2] (coenzyme from D452-2-L124 0.5 g/L, sodium acetate pH 6.0, 30° C., FIG. 5) was “best hydrolyzed”; in data set [2] (coenzymes from strains not expressing LAC4 (D452-2-L12 and parent D452-2), pH 6.0, 30° C.), “hardly hydrolyzed”. Further, in data set [2] (coenzyme 0.5 g/L, pH 6.0, 30° C.), the “reactivity to β-galactosidase compared with lactose” value is “less reactive”. The “AB consumption from medium” value in data set [3] was “intracellularly consumed AB”; in data set [4], “did not decrease”. The “specific growth rate as AB concentration increased” value in data set [5] (AB 0, 10, 20, 50 g/L, 20 g/L glucose, minimal medium, 30° C., FIG. 6A) is listed as “most sharply decreased”; in [6] (setting [10]), “decreased as the AB concentration increased”; in [7] (setting [10]), “not affected until the AB concentration was 20 g/L”. Besides, the growth entry was “did not grow” in [5] (AB concentration 50 g/L, 20 g/L glucose); “did not grow” in data set [6] (AB concentration 50 g/L); “slowly grew afterward” in [7] (AB concentration 50 g/L). The “glucose (carbon source) consumption rate on increase in AB concentration” value in data set [5] (each strain showed a tendency similar to the specific growth rate, FIG. 6B) is “decreased”. In data set [8], the “thermal stability, degree of denaturation over time” value (from here on “thermal stability … over time”) was “denatured over time at 50 °C or more”.
As for `OC[C@@H](O)[C@@H]1OC[C@H](O)[C@H]1O[C@@H]1O[C@H](CO)[C@H](O)[C@H](O)[C@H]1O` [ABol, agarobititol], the “thermal stability … over time” value in data set [8] is “very stable without being denatured even at 70 °C”.
`O=C[C@@H](O)[C@@H]1OC[C@H](O)[C@H]1O` [L-AHG, 3,6-anhydro-L-galactose]: the “reactivity with AR” value in data set [1] is “then with L-AHG”. The “thermal stability … over time” value in data set [8] is “denatured over time at 50 °C or more”. In addition, the antibacterial effect entry in data set [9] is on record as “antibacterial effect”.
As for `OC[C@@H](O)[C@@H]1OC[C@H](O)[C@H]1O` [L-AHGol, 3,6-anhydro-L-galactitol], the “thermal stability … over time” value in data set [8] is “very stable without being denatured even at 70 °C”.
In the case of `O=C[C@H](O)[C@@H](O)[C@H](O)CO` [xylose], in data set [1], the “reactivity with AR” value is “reacted best”.
